In ChEMBL document CHEMBL1201862, “PubChem BioAssay data set” (2004):
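Values below derive from 48-hour exposures of cells grown in 96-well plates, with endpoints linearly interpolated between the two concentrations bracketing the appropriate inhibition level. The concentration for 50% growth inhibition is given as GI50.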 Activity calls are given as the source filed them. Cut-off read from the data, not from the text of the source: active = GI50 up to about 1.1 µM and inactive = higher.

Columns and labels:
Assay in all cases: NCI tumour cell line growth inhibition, 48 h
[1] = test system: DU-145
[2] = test system: NCI-H460
[3] = test system: Hs-578T
[4] = test system: SF-295
[5] = test system: K562
[6] = test system: KM12
[7] = test system: 786-0
[8] = test system: HOP-62
[9] = test system: SW-620
[10] = test system: HCC 2998
[11] = test system: HT-29
[12] = test system: SK-MEL-2
[13] = test system: HCT-116
[14] = test system: A498
[15] = test system: ACHN
[16] = test system: UACC-62
[17] = test system: MCF7
[18] = test system: COLO 205
[19] = test system: SK-MEL-5
[20] = test system: CCRF-CEM

Measured: GI50

O=C(O)CSc1nc2ccccc2[nH]1
inactive: [1] > 100 µM | [2] > 100 µM | [3] > 100 µM | [4] > 100 µM | [5] > 100 µM | [6] > 100 µM | [7] > 100 µM | [8] > 100 µM | [9] > 100 µM | [10] > 100 µM | [11] > 100 µM | [12] 74.1 µM | [13] > 100 µM | [14] > 100 µM | [15] > 100 µM | [16] > 100 µM

SC1=C2CCCCCC2=NC2(CCCCCC2)S1
inactive: [17] 19 µM | [1] 30.8 µM | [2] 17.3 µM | [3] 11.6 µM | [4] 23.6 µM | [5] 12.2 µM | [6] 18.4 µM | [7] 33.1 µM | [18] 17.7 µM | [8] 31.7 µM | [9] 32.3 µM | [10] 23.3 µM | [11] 24.9 µM | [19] 11.2 µM | [12] 6.3 µM | [20] 33.6 µM | [13] 26.9 µM | [15] 13 µM | [16] 26.8 µM

Cc1sc2ccccc2[n+]1CCC(=O)O
inactive: [17] > 100 µM | [1] > 100 µM | [2] > 100 µM | [3] > 100 µM | [4] > 100 µM | [5] 6.67 µM | [6] > 100 µM | [7] > 100 µM | [18] > 100 µM | [8] > 100 µM | [9] > 100 µM | [11] > 100 µM | [19] > 100 µM | [12] > 100 µM | [13] > 100 µM | [14] > 100 µM | [15] > 100 µM | [16] > 100 µM

CC(C)NC(=O)N(Nc1ccccc1)C(C)(C)C
inactive: [17] > 100 µM | [2] > 100 µM | [3] > 100 µM | [4] > 100 µM | [5] > 100 µM | [6] > 100 µM | [7] > 100 µM | [18] > 100 µM | [8] > 100 µM | [9] > 100 µM | [10] > 100 µM | [11] > 100 µM | [19] > 100 µM | [12] > 100 µM | [20] > 100 µM | [13] > 100 µM | [14] > 100 µM | [15] > 100 µM | [16] > 100 µM

O=S(=O)(O)c1cc(O)c(/N=N/c2ccc3ccccc3c2O)c2ccccc12 [ERIOCHROME BLUE BLACK B]
inactive: [1] 14.3 µM | [3] 40.8 µM | [4] 27.4 µM | [5] 18 µM | [6] 30.4 µM | [7] 31.4 µM | [18] 28.7 µM | [8] 30.3 µM | [9] 33.9 µM | [11] 24.7 µM | [19] 11.9 µM | [12] 26.9 µM | [20] 21.9 µM | [13] 33.4 µM | [15] 24.6 µM | [16] 14.8 µM

Cc1c2c(n3c(nc4ccccc43)c1C#N)SCC2
inactive: [17] > 10 µM | [1] > 10 µM | [2] > 10 µM | [3] > 10 µM | [4] > 10 µM | [5] > 10 µM | [6] > 10 µM | [7] 8.71 µM | [8] > 10 µM | [9] > 10 µM | [11] > 10 µM | [19] > 10 µM | [12] > 10 µM | [20] > 10 µM | [13] > 10 µM | [14] 3.36 µM | [15] > 10 µM | [16] > 10 µM

CCCCCCC(=O)O[C@H]1CC[C@H]2[C@@H]3CCC4C/C(=N/NC(=O)c5cccc6c(=O)c7ccccc7[nH]c56)C=C(C)[C@]4(C)[C@H]3CC[C@]12C (some centres undefined)
inactive: [17] > 25 µM | [1] > 25 µM | [3] > 25 µM | [4] > 25 µM | [5] > 25 µM | [6] 9.27 µM | [7] > 25 µM | [18] > 25 µM | [8] > 25 µM | [9] > 25 µM | [10] > 25 µM | [11] > 25 µM | [19] > 25 µM | [12] > 25 µM | [20] > 25 µM | [13] > 25 µM | [15] > 25 µM | [16] > 25 µM

CCOc1cc(C2CC(c3ccc(NS(=O)(=O)c4cc([N+](=O)[O-])ccc4C)cc3)=NN2)ccc1O (centres undefined)
inactive: [17] 21.5 µM | [1] 36.6 µM | [3] 65 µM | [5] 24.5 µM | [7] 20.1 µM | [18] 22.3 µM | [9] 32.8 µM | [11] 26.8 µM | [19] 19.2 µM | [12] 21.7 µM | [20] 30.8 µM | [13] 20.4 µM | [14] 22.3 µM | [15] 23.7 µM | [16] 14 µM

CCc1c(OC(C)=O)c2c(NC3OC(COC(C)=O)C(OC(C)=O)C(OC(C)=O)C3OC(C)=O)nc(OC)nc2oc1=O (centres undefined)
inactive: [2] > 100 µM | [4] > 100 µM | [5] > 100 µM | [6] > 100 µM | [7] > 100 µM | [18] > 100 µM | [8] > 100 µM | [9] > 100 µM | [10] > 100 µM | [11] > 100 µM | [19] > 100 µM | [12] > 100 µM | [20] > 100 µM | [13] > 100 µM | [14] > 100 µM | [15] > 100 µM | [16] > 100 µM

CC(C)[C@@H]1C=C(c2ccccc2)c2ccccc2C1C(C#N)(C#N)C(C)C (some centres undefined)
inactive: [2] > 100 µM | [4] > 100 µM | [5] 38.2 µM | [6] > 100 µM | [7] > 100 µM | [18] > 100 µM | [8] > 100 µM | [9] > 100 µM | [10] 90.4 µM | [11] 68.7 µM | [19] 39.7 µM | [12] > 100 µM | [20] > 100 µM | [13] 32.9 µM | [14] > 100 µM | [15] > 100 µM | [16] > 100 µM

COC(=O)C1=C(OC(=O)/C=C/c2ccc(Cl)cc2)C(C(=O)OC)[C@]2(O)[C@@H](C(=O)OC)[C@H]1C[C@@H](c1ccccc1)[C@@H]2C(=O)OC (some centres undefined)
inactive: [1] 7.31 µM | [2] 4.15 µM | [3] 7.71 µM | [4] 9.23 µM | [5] 4.54 µM | [6] 4.89 µM | [7] 4.92 µM | [18] 4.43 µM | [8] > 57.4 µM | [9] 3.97 µM | [10] 7.83 µM | [11] 7.74 µM | [19] 4.55 µM | [12] 6.27 µM | [20] 3.31 µM | [13] 3.53 µM | [14] 6.04 µM | [15] 4.74 µM | [16] 7.45 µM

COc1nc2c(c(=O)[nH]1)N=C(c1ccc(Cl)cc1)CC(c1ccccc1)N2 (centres undefined)
inactive: [17] 39 µM | [1] 40.6 µM | [2] 27.1 µM | [4] 23.1 µM | [5] 28.1 µM | [6] 37.2 µM | [7] 37.6 µM | [18] 38.8 µM | [8] 53.6 µM | [9] 44.6 µM | [10] 34 µM | [11] 34.5 µM | [19] 17.6 µM | [12] 21.3 µM | [20] 19.1 µM | [13] 34.3 µM | [14] 33.3 µM | [15] 23.1 µM | [16] 20.2 µM

C=C1C[C@]23CC[C@@H]4C(CO)(CO)CC(=O)C[C@]4(C)[C@@H]2CC[C@H]1C3
inactive: [17] > 100 µM | [1] > 100 µM | [2] > 100 µM | [3] > 100 µM | [4] > 100 µM | [5] > 100 µM | [7] > 100 µM | [18] > 100 µM | [8] > 100 µM | [9] > 100 µM | [10] > 100 µM | [11] > 100 µM | [12] > 100 µM | [20] > 100 µM | [13] > 100 µM | [15] > 100 µM | [16] > 100 µM

CC(C)N(C(=O)C12C3C4C5C3C1(C(=O)O)C5C42)C(C)C (centres undefined)
inactive: [2] > 100 µM | [4] > 100 µM | [5] > 100 µM | [6] > 100 µM | [7] > 100 µM | [18] > 100 µM | [8] > 100 µM | [9] > 100 µM | [10] > 100 µM | [11] > 100 µM | [19] > 100 µM | [12] > 100 µM | [20] > 100 µM | [13] > 100 µM | [14] > 100 µM | [15] > 100 µM | [16] > 100 µM

C/C=C/c1c(O)c(=O)c2c(OC)cc(OC)c3c4c(OC)cc(OC)c5c(=O)c(O)c(/C=C/C)c(c1c23)c54
inactive: [17] 14.5 µM | [1] 8.07 µM | [2] 9.48 µM | [4] 44.5 µM | [5] 3.4 µM | [6] 10.9 µM | [7] 14.9 µM | [18] 3.7 µM | [8] 16.3 µM | [9] 6.55 µM | [10] 16.6 µM | [11] 6.22 µM | [19] 5.73 µM | [12] 10.2 µM | [20] 5.46 µM | [13] 4.84 µM | [14] 32.6 µM | [15] 2.86 µM | [16] 6.3 µM
